# Earlier results, collected in patent US5981578A (priority 1997, dated 1999).
# Conditions: in just a few days
structure (smiles),measurement,value
"O=C1O[C@H]([C@@H](O)CO)C(O)=C1O [Ascorbic acid, ascorbic acid]",color development of aqueous preparations,"develop colors, progressively, from light yellow to orange dark brown"
